From US9862712B2, “Benzimidazole based EGFR inhibitors” (COUNCIL OF SCIENTIFIC & INDUSTRIAL RESEARCH, priority 2014, dated 2018)
Entries after “also recorded” stand apart in the source; their conditions may differ.

Legend:
[1] = tested on: A549 Cell line (Lung Cancer Cell line); experiment: MTT cell proliferation assay, A549 Cell line; format: cell-based, human; settings: for viability at 0.01 µM / viability at 0.1 µM / viability at 2.5 µM / viability at 5 µM / viability at 10 µM: Homo sapiens, 72 h, MTT; for viability at 0.01 µM: A549, 0.01 μM; for viability at 0.1 µM: A549, 0.1 μM; for viability at 2.5 µM: A549, 2.5 μM; for viability at 5 µM: A549, 5 μM; for viability at 10 µM: A549, 10 μM
Protocol: (§1) 1. Protocol Followed for Anti Cancer Activity and Results, Cell Proliferation Assays: Cell lines used herein were purchased from NCCS (National Center for Cell Sciences) Pune, India. Invitro Activity was performed in NCL (National Chemical Laboratory) Pune. Each cell line was plated in 96-well microtiter plates (10,000 cells per well), and serial dilutions of indicated compounds were added. At the end of the incubation period (72 h at 37° C.), cell viability was determined by a tetrazolium dye, MTT (3-(4,5-dimethylthiazol-2-yl)-2,5-diphenyl tetrazolium bromide) (Promega, USA). The formazan crystals were dissolved in DMSO, and the absorbance at 600 nm was recorded using an ELISA plate reader. IC50 values were calculated using nonlinear regression and defined as the concentration needed for a 50% reduction in absorbance of treated versus untreated control cells.
By using the above procedure, the compounds of the invention were tested on A549 Cell line and the results obtained are presented below in table 4, Refer FIG. 1.

MCF-7 Cell line = experiment: MTT cell proliferation assay, MCF-7 Cell line; format: cell-based; settings: for viability at 0.01 µM / viability at 0.1 µM / viability at 2.5 µM / viability at 5 µM / viability at 10 µM: Homo sapiens, MCF7, 72 h, MTT; for viability at 0.01 µM: MCF-7, 0.01 μM; for viability at 0.1 µM: MCF-7, 0.1 μM; for viability at 2.5 µM: MCF-7, 2.5 μM; for viability at 5 µM: MCF-7, 5 μM; for viability at 10 µM: MCF-7, 10 μM
Protocol: as §1
Table 4 indicates anticancer activity against A549 Cell line. The Gefitinib was used as standard and % cell Viable was measured compared to control. The procedure used was MTT assay as mentioned. […] By using the above procedure, the compounds of the invention were tested on MCF-7 Cell line and the results obtained are presented below in table 5, Refer FIG. 2.

HOP-62 Cell line = experiment: MTT cell proliferation assay, HOP-62 Cell line; format: cell-based; settings: for viability at 0.01 µM / viability at 0.1 µM / viability at 2.5 µM / viability at 5 µM / viability at 10 µM: Homo sapiens, 72 h, MTT; for viability at 0.01 µM: HOP-62, 0.01 μM; for viability at 0.1 µM: HOP-62, 0.1 μM; for viability at 2.5 µM: HOP-62, 2.5 μM; for viability at 5 µM: HOP-62, 5 μM; for viability at 10 µM: HOP-62, 10 μM
Protocol: as §1
By using the above procedure, the compounds of the invention were tested on HOP-62 Cell line and the results obtained are presented below in table 6, Refer FIG. 3.

MDA-MB-436 Cell line = experiment: MTT cell proliferation assay, MDA-MB-436 Cell line; format: cell-based; settings: for viability at 0.01 µM / viability at 0.1 µM / viability at 2.5 µM / viability at 5 µM / viability at 10 µM: Homo sapiens, 72 h, MTT; for viability at 0.01 µM: MDA-MB-436, 0.01 μM; for viability at 0.1 µM: MDA-MB-436, 0.1 μM; for viability at 2.5 µM: MDA-MB-436, 2.5 μM; for viability at 5 µM: MDA-MB-436, 5 μM; for viability at 10 µM: MDA-MB-436, 10 μM
Protocol: as §1
By using the above procedure, the compounds of the invention were tested on MDA-MB-436 Cell line and the results obtained are presented below in table 7, Refer FIG. 4.

[2] = tested on: U87MG Cell line (Glioblastoma cell line); experiment: MTT cell proliferation assay, U87MG Cell line; format: cell-based; settings: for viability at 0.01 µM / viability at 0.1 µM / viability at 2.5 µM / viability at 5 µM / viability at 10 µM: Homo sapiens, U-87 MG, U87MG, 72 h, MTT
Protocol: as §1
By using the above procedure, the compounds of the invention were tested on U87MG Cell line (glioblastoma cell line) and the results obtained are presented below in table 8, Refer FIG. 5.

Log P (Table 3) = format: physicochemical; settings: no method given
[3] = compared among 15 molecules and with Gefitinib, listed as M4

Row | Compound | viability at 0.01 µM [1] [%] | viability at 0.1 µM [1] [%] | viability at 2.5 µM [1] [%] | viability at 5 µM [1] [%] | viability at 10 µM [1] [%] | viability at 0.01 µM (MCF-7 Cell line) [%] | viability at 0.1 µM (MCF-7 Cell line) [%] | viability at 2.5 µM (MCF-7 Cell line) [%] | viability at 5 µM (MCF-7 Cell line) [%] | viability at 10 µM (MCF-7 Cell line) [%] | viability at 0.01 µM (HOP-62 Cell line) [%] | viability at 0.1 µM (HOP-62 Cell line) [%] | viability at 2.5 µM (HOP-62 Cell line) [%] | viability at 5 µM (HOP-62 Cell line) [%] | viability at 10 µM (HOP-62 Cell line) [%] | viability at 0.01 µM (MDA-MB-436 Cell line) [%] | viability at 0.1 µM (MDA-MB-436 Cell line) [%] | viability at 2.5 µM (MDA-MB-436 Cell line) [%] | viability at 5 µM (MDA-MB-436 Cell line) [%] | viability at 10 µM (MDA-MB-436 Cell line) [%] | also measured
1 | COc1ccc(Nc2nc(N)c(-c3nc4ccccc4[nH]3)s2)cc1 [Molecule S4-M2, 5-(1H-benzo[d]imidazol-2-yl)-N^2-(4-methoxyphenyl)thiazole-2,4-diamine] | 95 | 89.5 | 75.5 | 60.5 | 51.5 | 97 | 95.5 | 95.5 | 90.5 | 84.5 | 99 | 93.5 | 85.5 | 77.5 | 75.5 | 113 | 108 | 95.5 | 93.5 | 90.5 | viability at 0.01 µM [2]: 93%; viability at 0.1 µM [2]: 86.5%; viability at 2.5 µM [2]: 79.5%; viability at 5 µM [2]: 68.5%; viability at 10 µM [2]: 55.5%; logP (Log P (Table 3)): 2.11; melting point: 224 to 226 °C
2 | Nc1nc(Nc2ccccc2[N+](=O)[O-])sc1-c1nc2ccccc2[nH]1 [Molecule S4-M4, 5-(1H-benzo[d]imidazol-2-yl)-N^2-(2-nitrophenyl)thiazole-2,4-diamine] | 57.1 | 49.1 | 34.7 | 25.9 | 18.4 | 72.7 | 61.2 | 53.8 | 42.9 | 31.9 | 43.1 | 36.1 | 25.7 | 18.9 | 12.4 | 69.7 | 58.2 | 42.8 | 28.9 | 21.9 | anticancer activity against A549 Cell line (in words) ([1]; compared among 15 molecules and with Gefitinib): most active; anticancer activity against MCF-7 Cell line (in words) (MCF-7 Cell line; compared among 15 molecules, listed as M4): most active; also recorded: showing Invitro activity; anticancer activity against HOP-62 Cell line (in words) (HOP-62 Cell line; [3]): most active; also recorded: Invitro activity comparable to standard Gefitinib; anticancer activity against MDA-MB-436 Cell line (in words) (MDA-MB-436 Cell line; [3]): most active; also recorded: Invitro activity comparable to standard Gefitinib; viability at 0.01 µM [2]: 45.7%; viability at 0.1 µM [2]: 33.2%; viability at 2.5 µM [2]: 22.8%; viability at 5 µM [2]: 18.9%; viability at 10 µM [2]: 8.86%; anticancer activity against U87-MG Cell line (in words) ([2]; compared among 15 molecules): most active; logP (Log P (Table 3)): 3.33; melting point: 220 to 222 °C
3 | Cc1cc(C)c(Nc2nc(N)c(-c3nc4ccccc4[nH]3)s2)c(C)c1 [Molecule S4-M6, 5-(1H-benzo[d]imidazol-2-yl)-N^2-mesitylthiazole-2,4-diamine] | 92.3 | 85.1 | 72 | 61 | 50 | 112 | 100 | 101 | 100 | 100 | 103 | 100 | 100 | 100 | 91 | 116 | 112 | 110 | 105 | 101 | viability at 0.01 µM [2]: 91.3%; viability at 0.1 µM [2]: 82.1%; viability at 2.5 µM [2]: 70%; viability at 5 µM [2]: 59%; viability at 10 µM [2]: 42.4%; logP (Log P (Table 3)): 2.11; melting point: 218 to 220 °C
